Experiments:
Type in all cases: biochemical
[1] = biological target: T1, human EGFR (d746-750/T790M/C797S) (Homo sapiens, UniProt P00533, C797S/DEL746-750/T790M); experiment: Inhibitory activity against EGFR (d746-750/T790M/C797S) kinase
T1 construct: made in house; host or cells: Sf9 insect cells, baculovirus
Protocol: 1) Measurement of inhibitory activity against EGFR (d746-750/T790M/C797S) kinase
The compounds of the above examples and comparative examples were measured for their inhibitory activity against EGFR (d746-750/T790M/C797S) kinase activity. Among the materials required for measurement of this inhibitory activity, the kinase protein (SEQ ID NO: 1) used was prepared as follows: the cytoplasmic domain of human EGFR (d746-750/T790M/C797S) fused at the ammo terminal end with a glutathione-S-transferase (GST) tag was expressed M insect cells (Sf9) by the baculovirus expression system and then purified an a glutathione sepharose column. For use as a substrate peptide, a peptide biotinylated at the N-terminal end (biotin -EEPLYWSFPAKKK) was synthesized by reference to Perkin Elmer LabChip® series reagent FL-Peptide 22.
Procedures for measurement of the inhibitory activity are as follows. First, the compounds of the present invention were each dissolved in dimethyl sulfoxide (DMSO), and their serial dilutions were then prepared with DMSO. Secondly, each compound serial dilution (final concentration of DMSO during kinase reaction: 2.5%) or DMSO (final concentration: 2.5%) was mixed with a solution containing the substrate peptide (final concentration: 250 nM), magnesium chloride (final concentration: 10 mM), manganese chloride (final concentration: 10 mM) and ATP (final concentration: 6 μM) in a kinase reaction buffer (Carna Biosciences Inc., Japan), and the EGFR (d746-750/T790M/C797S) protein was further added thereto, followed by incubation at 25° C. for 120 minutes to cause kinase reaction. To the reaction solution, EDTA was added to give a final concentration of 24 mM to thereby stop the reaction, followed by addition of a phospholylated tyrosine detection solution containing europium-labeled anti-phosphorylated tyrosine antibody PT66 (Perkin Elmer) and SureLight APC-SA (Perkin Elmer). The reaction solution was allowed to stand at room temperature for 2 hours or longer. As a background, DMSO was used instead of each compound solution in .DMSO, and EDIA was added prior to the addition of the EGFR EGFR (d746-750/T790M/C797S) protein, followed by incubation at 25° C. for 120 minutes. The same detection solution was also added to this reaction solution, which was then allowed to stand for 2 hours or longer. Finally, all the test samples were measured with a PHERAstar FS reader (BMG LABTECH) for their fluorescence intensity at two wavelengths of 620 nm and 665 nm upon irradiation with an excitation light of 337 nm wavelength, and the ratio of fluorescence intensities at these two wavelengths was obtained as data for each compound.
Moreover, as control compounds, the above Comparative Example A (Example 3 in WO2013/118817) and Comparative Example B (Example 35 in WO2013/118817) known to have EGFR inhibitory activity were used.
In accordance with the same procedures as shown in 1) in Test Example 1, the compounds of the above examples were measured for their inhibitory activity against EGFR (d746-750/T790M/C797S) kinase activity.

[2] = biological target: T2, human EGFR (L858R/T790M/C797S) (Homo sapiens, UniProt P00533, C797S/L858R/T790M); experiment: Inhibitory activity against EGFR (L858R/T790M/C797S) kinase
T2 construct: made in house; host or cells: Sf9 insect cells, baculovirus
T2 sequence (P00533 with tags, fused parts or gaps T790M/C797S/L858R): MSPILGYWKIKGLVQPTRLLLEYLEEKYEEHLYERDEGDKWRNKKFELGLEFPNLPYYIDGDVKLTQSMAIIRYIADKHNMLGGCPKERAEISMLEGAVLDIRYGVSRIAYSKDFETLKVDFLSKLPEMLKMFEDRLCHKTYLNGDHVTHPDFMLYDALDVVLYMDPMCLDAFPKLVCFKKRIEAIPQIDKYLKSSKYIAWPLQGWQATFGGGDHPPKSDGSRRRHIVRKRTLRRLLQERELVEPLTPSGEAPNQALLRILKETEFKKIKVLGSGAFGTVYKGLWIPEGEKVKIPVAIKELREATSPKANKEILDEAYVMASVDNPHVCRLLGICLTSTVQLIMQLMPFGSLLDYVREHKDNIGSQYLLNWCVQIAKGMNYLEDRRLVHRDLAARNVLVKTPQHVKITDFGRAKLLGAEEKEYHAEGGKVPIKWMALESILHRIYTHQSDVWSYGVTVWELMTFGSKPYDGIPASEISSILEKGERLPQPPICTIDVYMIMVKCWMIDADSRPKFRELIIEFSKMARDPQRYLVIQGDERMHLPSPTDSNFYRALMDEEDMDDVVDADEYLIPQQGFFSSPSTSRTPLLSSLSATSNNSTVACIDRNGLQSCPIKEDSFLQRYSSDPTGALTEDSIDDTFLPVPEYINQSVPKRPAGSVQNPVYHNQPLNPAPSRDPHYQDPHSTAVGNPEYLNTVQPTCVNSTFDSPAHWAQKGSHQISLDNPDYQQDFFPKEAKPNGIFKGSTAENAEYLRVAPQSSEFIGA
Protocol: 2) Measurement of inhibitory activity against EGFR (L858R/T790M/C797S) kinase
The compounds of the presein invention were measured for their inhibitory activity against EGFR (L858R/T790M/C797S) kinase activity.
The materials, measurement procedures and data analysis method used in this test are substantially the same as those shown in the section “Measurement of inhibitory activity against EGFR (d746-750/T790M/C797S) kinase.” However, among the materials, the kinase protein (SEQ ID NO: 2) used was prepared as follows: the cytoplasmic domain of human EGFR (L858R/T790M/C797S) fused at the amino terminal end with a GST tag was expressed in insect cells (Sf9) by the baculovirus expression system and then purified on a glutathione sepharose column. In the measurement procedures, the final concentration of ATP was set to 0.5 μM. Finally, data analysis was conducted to determine the IC50 value (nM) of each compound against EGFR (L858R/T790M/C797S).
In accordance with the same procedures as shown in 2) in Test Example 1, the compounds of the present invention were measured for their inhibitory activity against EGFR (L858R/T790M/C797S) kinase activity.

[3] = biological target: T3, human EGFR (d746-750/C797S) (Homo sapiens, UniProt P00533, C797S/DEL746-750); experiment: Inhibitory activity against EGFR (d746-750/C797S) kinase
T3 construct: purchased SignalChem
T3 sequence (P00533 with tags, fused parts or gaps DEL746-750/C797S): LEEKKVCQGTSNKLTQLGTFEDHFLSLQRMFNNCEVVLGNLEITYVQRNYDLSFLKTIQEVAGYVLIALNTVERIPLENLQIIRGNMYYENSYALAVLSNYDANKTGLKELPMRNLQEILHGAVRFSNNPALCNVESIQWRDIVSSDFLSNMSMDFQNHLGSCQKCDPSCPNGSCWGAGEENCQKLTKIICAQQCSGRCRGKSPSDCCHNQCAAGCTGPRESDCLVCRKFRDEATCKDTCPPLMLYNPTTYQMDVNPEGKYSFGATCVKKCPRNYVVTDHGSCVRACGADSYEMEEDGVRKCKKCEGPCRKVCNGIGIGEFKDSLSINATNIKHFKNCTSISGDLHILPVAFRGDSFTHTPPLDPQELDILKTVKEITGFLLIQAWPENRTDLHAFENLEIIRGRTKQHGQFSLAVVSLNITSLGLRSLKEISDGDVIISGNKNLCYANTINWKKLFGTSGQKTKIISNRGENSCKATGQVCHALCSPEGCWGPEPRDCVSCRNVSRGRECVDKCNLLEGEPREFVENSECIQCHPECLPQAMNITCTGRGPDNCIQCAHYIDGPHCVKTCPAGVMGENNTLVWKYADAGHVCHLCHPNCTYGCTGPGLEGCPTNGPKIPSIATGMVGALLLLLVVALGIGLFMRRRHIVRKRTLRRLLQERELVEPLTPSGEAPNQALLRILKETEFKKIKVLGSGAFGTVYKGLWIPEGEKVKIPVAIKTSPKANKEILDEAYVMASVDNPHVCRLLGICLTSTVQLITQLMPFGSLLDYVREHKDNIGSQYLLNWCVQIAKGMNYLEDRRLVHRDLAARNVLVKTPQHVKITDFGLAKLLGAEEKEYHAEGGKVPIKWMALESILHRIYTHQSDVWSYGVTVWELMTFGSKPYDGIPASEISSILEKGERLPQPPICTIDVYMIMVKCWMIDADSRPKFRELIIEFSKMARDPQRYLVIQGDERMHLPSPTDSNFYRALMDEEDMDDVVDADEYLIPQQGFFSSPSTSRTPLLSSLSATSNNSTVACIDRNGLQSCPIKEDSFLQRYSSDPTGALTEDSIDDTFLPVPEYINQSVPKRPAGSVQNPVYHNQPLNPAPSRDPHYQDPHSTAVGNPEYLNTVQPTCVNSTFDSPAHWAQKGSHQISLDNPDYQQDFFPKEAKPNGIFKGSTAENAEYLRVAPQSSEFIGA
Protocol: 3) Measurement of inhibitory activity against EGFR (d746-750/C797S) kinase
The compounds of the present invention were measured for their inhibitory activity against EGFR (d746-750/C797S) kinase activity.
The materials, measurement procedures and data analysis method used in this test are substantially the same as those shown in the section “Measurement of inhibitory activity aiainst EGFR (d746-750/T790M/C797S) kinase.” However, among the materials, the kinase protein used was a purified recombinant human EGFR (d746-750/C797S) protein purchased from SignalChem, while the kinase reaction buffer used was 13.5 mM Tris (pH 7.5) containing 2 mM dithiothreitol and 0.009% Tween-20. In the measurement procedures, the final concentration of ATP was set to 14 μM, the final concentration of maganesium chloride was set to 20 mM, the final concentration of manganese chloride was set to 12.5 mM, the incubation time for kinase reaction was set to 60 minutes, and the final concentration of EDTA used to stop the kinase reaction was set to 40 mM. Finally, data analysis was conducted to determine to IC50 value (nM) of each compound against EGFR (d746-750/C797S).
In accordance with the same procedures as shown in 3) in Test Example 1, the compounds of the present invention were measured for their inhibitory activity against EGFR (d746-750/C797S) kinase activity.

human EGFR (L858R/C797S) = biological target: T4, human EGFR (L858R/C797S) (Homo sapiens, UniProt P00533, C797S/L858R); experiment: Inhibitory activity against EGFR (L858R/C797S) kinase
T4 construct: purchased SignalChem
T4 sequence (P00533 25-1210 C797S/L858R): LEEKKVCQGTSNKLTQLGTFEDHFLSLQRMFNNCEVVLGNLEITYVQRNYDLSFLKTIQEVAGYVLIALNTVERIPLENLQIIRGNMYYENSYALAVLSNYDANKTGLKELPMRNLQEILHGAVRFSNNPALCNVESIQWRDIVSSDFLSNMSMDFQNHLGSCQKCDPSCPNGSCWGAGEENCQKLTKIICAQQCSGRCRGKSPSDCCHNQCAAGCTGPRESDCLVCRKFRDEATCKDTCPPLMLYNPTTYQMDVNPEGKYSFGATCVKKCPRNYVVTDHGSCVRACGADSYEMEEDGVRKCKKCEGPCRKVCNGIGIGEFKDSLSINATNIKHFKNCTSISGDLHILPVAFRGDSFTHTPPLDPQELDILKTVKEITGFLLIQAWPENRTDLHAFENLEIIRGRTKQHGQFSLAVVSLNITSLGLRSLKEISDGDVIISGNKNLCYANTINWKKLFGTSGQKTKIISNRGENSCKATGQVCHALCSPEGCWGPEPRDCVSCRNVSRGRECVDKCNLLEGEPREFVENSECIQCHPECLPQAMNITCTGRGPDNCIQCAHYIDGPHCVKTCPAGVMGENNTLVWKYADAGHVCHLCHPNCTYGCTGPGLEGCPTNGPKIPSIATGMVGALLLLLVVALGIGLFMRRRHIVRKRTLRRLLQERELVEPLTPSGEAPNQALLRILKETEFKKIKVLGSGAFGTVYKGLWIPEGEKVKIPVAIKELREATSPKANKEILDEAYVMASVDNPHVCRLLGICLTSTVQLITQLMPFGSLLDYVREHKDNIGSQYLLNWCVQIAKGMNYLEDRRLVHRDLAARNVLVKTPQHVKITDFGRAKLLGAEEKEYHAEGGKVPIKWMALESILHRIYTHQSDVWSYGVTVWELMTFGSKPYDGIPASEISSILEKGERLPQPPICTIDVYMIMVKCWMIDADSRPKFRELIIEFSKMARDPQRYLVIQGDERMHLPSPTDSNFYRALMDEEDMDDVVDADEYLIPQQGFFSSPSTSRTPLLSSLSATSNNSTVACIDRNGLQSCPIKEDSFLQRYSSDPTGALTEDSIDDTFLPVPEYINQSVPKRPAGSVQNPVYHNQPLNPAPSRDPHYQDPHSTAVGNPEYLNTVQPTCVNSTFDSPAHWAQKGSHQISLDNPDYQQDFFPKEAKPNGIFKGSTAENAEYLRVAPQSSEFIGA
Protocol: 4) Measurement of inhibitory activity against EGFR (L858R/C797S) kinase
The compounds of the present invention were measured for their inhibitory activity aeainst EGFR (L858R/C797S) kinase activity.
The materials, measurement procedures and data analysis method used in this test are stibstantially the same as those shown in the section “Measurement of inhibitory activity against EGFR (d746-750/C797S) kinase.” However, among the materials, the kinase protein used was a purified recombinant human EGFR (C797S/L858R) protein purchased from SignalChem. In the measurement procedures, the final concentration of ATP was set to 4 μM, and the incubation time for kinase reaction was set to 90 minutes. Finally, data analysis was conducted determine the IC50 value (nM) of each compound against EGFR (L858R/C797S).
In accordance with the same procedures as shown in 4) in Test Example 1, the compounds of the present invention were measured for their inhibitor activity against. EGFR (L858R/C797S) kinase activity.

human EGFR (WT) = biological target: T5, human EGFR (WT) (Homo sapiens, UniProt P00533); experiment: Inhibitory activity against EGFR (WT) kinase
T5 construct: purchased Carna Biosciences Inc., Japan
T5 sequence (P00533 25-1210): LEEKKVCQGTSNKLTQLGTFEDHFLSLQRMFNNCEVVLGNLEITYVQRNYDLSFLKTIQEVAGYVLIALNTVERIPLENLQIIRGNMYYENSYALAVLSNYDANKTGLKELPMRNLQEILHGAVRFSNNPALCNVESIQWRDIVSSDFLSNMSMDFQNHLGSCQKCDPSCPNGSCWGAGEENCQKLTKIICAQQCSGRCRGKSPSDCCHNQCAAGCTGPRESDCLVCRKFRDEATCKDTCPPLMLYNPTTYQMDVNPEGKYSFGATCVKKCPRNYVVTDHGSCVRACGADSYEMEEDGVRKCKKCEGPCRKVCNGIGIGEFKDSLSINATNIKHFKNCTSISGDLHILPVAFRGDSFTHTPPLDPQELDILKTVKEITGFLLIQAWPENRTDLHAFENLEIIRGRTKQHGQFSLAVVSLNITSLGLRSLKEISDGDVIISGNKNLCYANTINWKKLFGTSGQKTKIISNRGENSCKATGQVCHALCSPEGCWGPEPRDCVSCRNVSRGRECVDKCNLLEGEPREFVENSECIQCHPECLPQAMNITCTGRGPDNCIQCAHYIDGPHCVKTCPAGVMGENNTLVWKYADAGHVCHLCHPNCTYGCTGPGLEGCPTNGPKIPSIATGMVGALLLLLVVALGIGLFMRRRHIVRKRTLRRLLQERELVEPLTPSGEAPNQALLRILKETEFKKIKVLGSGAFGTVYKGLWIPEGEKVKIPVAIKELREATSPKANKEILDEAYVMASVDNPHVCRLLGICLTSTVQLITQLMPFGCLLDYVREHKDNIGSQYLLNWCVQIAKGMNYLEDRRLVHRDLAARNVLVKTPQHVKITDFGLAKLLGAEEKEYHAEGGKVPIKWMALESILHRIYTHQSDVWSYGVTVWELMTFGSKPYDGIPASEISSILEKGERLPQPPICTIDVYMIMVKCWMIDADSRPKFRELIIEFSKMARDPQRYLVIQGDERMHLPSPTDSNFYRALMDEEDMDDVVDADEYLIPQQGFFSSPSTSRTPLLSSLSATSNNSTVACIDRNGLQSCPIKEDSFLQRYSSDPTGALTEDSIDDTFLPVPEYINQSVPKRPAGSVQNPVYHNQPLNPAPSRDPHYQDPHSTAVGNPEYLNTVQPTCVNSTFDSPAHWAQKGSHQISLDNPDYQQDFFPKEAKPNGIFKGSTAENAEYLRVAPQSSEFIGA
Protocol: The compounds of the present invention were measured for their inhibitory activity nainst EGFR (WT) kinase activity.
The materials, measurement procedures and data analysis method used in this test. are substantially the same as those shown in the section “Measurement of inhibitory activity against EGFR (d746-750/T790M/C797S) kinase.” However, among the materials, the kinase protein used was a purified recombinant human EGFR (WT) purchased from Carna Biosciences Inc., Japan. In the measurement procedures, the final concentration of ATP was set to 1.5 μM. Finally, data analysis was conducted to determine the IC50 value (nM) of each compound against EGFR (WT).
In accordance with the same procedures as shown in 5) in Test Example 1, the compounds of the present invention were measured for their inhibitory activity against. EGFR (WT) kinase activity.

[4] = Test Example 1, Table 2, ATP 6 μM, 25° C., 120 minutes
[5] = Test Example 1, Table 3, ATP 0.5 μM
[6] = Test Example 1, Table 4, ATP 14 μM, 60 minutes
[7] = Test Example 1, Table 5, ATP 4 μM, 90 minutes
[8] = Test Example 1, Table 6, ATP 1.5 μM
[9] = Test Example 3, Table 8; same procedures as 1) in Test Example 1
[10] = Test Example 3, Table 9; same procedures as 2) in Test Example 1
[11] = Test Example 3, Table 10; same procedures as 3) in Test Example 1
[12] = Test Example 3, Table 11; same procedures as 4) in Test Example 1
[13] = Test Example 3, Table 12; same procedures as 5) in Test Example 1

T1 sequence (P00533 with tags, fused parts or gaps DEL746-750/T790M/C797S): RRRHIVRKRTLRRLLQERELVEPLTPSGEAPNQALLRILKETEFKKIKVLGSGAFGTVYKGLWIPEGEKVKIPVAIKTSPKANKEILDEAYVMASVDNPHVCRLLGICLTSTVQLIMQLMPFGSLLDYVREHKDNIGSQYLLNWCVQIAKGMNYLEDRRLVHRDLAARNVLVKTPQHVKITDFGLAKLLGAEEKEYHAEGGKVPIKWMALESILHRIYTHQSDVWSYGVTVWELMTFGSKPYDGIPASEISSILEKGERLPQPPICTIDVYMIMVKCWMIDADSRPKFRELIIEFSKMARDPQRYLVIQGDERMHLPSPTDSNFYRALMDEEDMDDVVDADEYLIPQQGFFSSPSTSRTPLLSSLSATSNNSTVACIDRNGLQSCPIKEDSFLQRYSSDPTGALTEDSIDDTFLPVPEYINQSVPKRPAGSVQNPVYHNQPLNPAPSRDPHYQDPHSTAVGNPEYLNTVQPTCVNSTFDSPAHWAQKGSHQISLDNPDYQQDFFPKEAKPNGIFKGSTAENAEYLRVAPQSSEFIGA

Row | IC50 [1, 4] [nM] | IC50 [2, 5] [nM] | IC50 [3, 6] [nM] | IC50 (human EGFR (L858R/C797S); [7]) [nM] | IC50 (human EGFR (WT); [8]) [nM] | IC50 [1, 9] [nM] | IC50 [2, 10] [nM] | IC50 [3, 11] [nM] | IC50 (human EGFR (L858R/C797S); [12]) [nM] | IC50 (human EGFR (WT); [13]) [nM] | Structure (SMILES)
1 | – | – | – | – | – | < 0.3 | < 0.3 | 0.3 | 0.48 | 0.72 | C#Cc1c(-c2cnc3ccccc3c2)c2c(N)ncnc2n1C12CCC(NC(=O)c3cccc[n+]3[O-])(CC1)C2 [Example 60, 2-((4-(4-Amino-6-ethynyl-5-(quinolin-3-yl)-7H-pyrrolo[2,3-d]pyrimidin-7-yl)bicyclo-[2.2.1]heptane-1-yl)carbamoyl)pyridine 1-oxide]
2 | < 0.3 | 0.66 | 0.56 | 0.97 | 1.6 | – | – | – | – | – | C#Cc1c(-c2cnc3ccccc3c2)c2c(N)ncnc2n1C12CCC(NC(=O)c3cncc(OCF)n3)(CC1)C2 [Example 38, N-(4-(4-Amino-6-ethynyl-5-(quinolin-3-yl)-7H-pyrrolo[2,3-d]pyrimidin-7-yl)-bicyclo-[2.2.1]heptan-1-yl)-6-(fluoromethoxy)pyrazine-2-carboxamide]
3 | < 0.3 | 0.6 | 1.5 | 2.6 | 0.88 | – | – | – | – | – | C#Cc1c(-c2cnc3ccccc3c2)c2c(N)ncnc2n1C12CCC(NC(=S)NCC)(CC1)C2 [Example 52]
4 | – | – | – | – | – | < 0.3 | < 0.3 | 0.7 | 1.6 | 0.94 | C#Cc1c(-c2cnc3ccccc3c2)c2c(N)ncnc2n1C12CCC(NC(=O)c3ccc(P(C)(C)=O)cn3)(CC1)C2 [Example 70, N-(4-(4-Amino-6-ethynyl-5-(quinolin-3-yl)-7H-pyrrolo[2,3-d]pyrimidin-7-yl)bicyclo-[2.2.1]heptan-1-yl)-5-(dimethylphosphoryl)picolinamide]
5 | – | – | – | – | – | < 0.3 | < 0.3 | < 0.3 | < 0.3 | < 0.3 | C#Cc1c(-c2cnc3ccccc3c2)c2c(N)ncnc2n1C12CCC(NC(=O)c3cnc(CO)cn3)(CC1)C2 [Example 66, N-(4-(4-Amino-6-ethynyl-5-(quinolin-3-yl)-7H-pyrrolo[2,3-d]pyrimidin-7-yl)bicyclo-[2.2.1]heptan-1-yl)-5-(hydroxymethyl)pyrazine-2-carboxamide]

More lines, now with the values behind:

Row | Structure (SMILES) | IC50 [1, 4] [nM] | IC50 [2, 5] [nM] | IC50 [3, 6] [nM] | IC50 (human EGFR (L858R/C797S); [7]) [nM] | IC50 (human EGFR (WT); [8]) [nM] | IC50 [1, 9] [nM] | IC50 [2, 10] [nM] | IC50 [3, 11] [nM] | IC50 (human EGFR (L858R/C797S); [12]) [nM] | IC50 (human EGFR (WT); [13]) [nM]
6 | C#Cc1c(-c2cnc3ccccc3c2)c2c(N)ncnc2n1C12CCC(NC(=O)c3ccnn3CCOC)(CC1)C2 [Example 17, N-(4-(4-Amino-6-ethynyl-5-(quinolin-3-yl)-7H-pyrrolo[2,3-d]pyrimidin-7-yl)bicyclo-[2.2.1]heptan-1-yl)-1-(2-methoxyethyl)-1H-pyrazole-5-carboxamide] | < 0.3 | 0.79 | 0.61 | 0.66 | 2.6 | – | – | – | – | –
7 | C#Cc1c(-c2cnc3ccccc3c2)c2c(N)ncnc2n1C12CCC(NCC#N)(CC1)C2 [Example 4, 2-((4-(4-Amino-6-ethynyl-5-(quinolin-3-yl)-7H-pyrrolo[2,3-d]pyrimidin-7-yl)bicyclo-[2.2.1]heptan-1-yl)amino)acetonitrile] | 0.36 | 0.38 | 1 | 1.5 | 2.9 | – | – | – | – | –
8 | C#Cc1c(-c2cnc3ccccc3c2)c2c(N)ncnc2n1C12CCC(CO)(CC1)C2 [Example 10] | < 0.3 | 0.56 | 0.62 | 0.95 | 1.1 | – | – | – | – | –
9 | C#Cc1c(-c2cnc3ccccc3c2)c2c(N)ncnc2n1C12CCC(NC(=O)c3ccnn3-c3ccccc3)(CC1)C2 [Example 26, N-(4-(4-Amino-6-ethynyl-5-(quinolin-3-yl)-7H-pyrrolo[2,3-d]pyrimidin-7-yl)bicyclo-[2.2.1]heptan-1-yl)-1-phenyl-1H-pyrazole-5-carboxamide] | < 0.3 | 0.62 | 0.71 | 0.84 | 2.1 | – | – | – | – | –
10 | C#Cc1c(-c2cnc3ccccc3c2)c2c(N)ncnc2n1C12CCC(NC(=O)COC)(CC1)C2 [Example 28, N-(4-(4-Amino-6-ethynyl-5-(quinolin-3-yl)-7H-pyrrolo[2,3-d]pyrimidin-7-yl)bicyclo-[2.2.1]heptan-1-yl)-2-methoxyacetamide] | < 0.3 | 1.1 | 0.89 | 1.7 | 3.2 | – | – | – | – | –

Source: patent US11786534B2 (TAIHO PHARMACEUTICAL CO., LTD., priority 2019, dated 2023)
